# Assay results from patent EP0009776A1, “N-monohydroxypropylamides, N-dihydroxypropylamides and their acetonoides of all-E and 13-Z retinoic acid, process for their preparation and pharmaceutical compositions containing them” (BASF Aktiengesellschaft, priority 1978, dated 1980).
# Tested on: Hamster-Tracheen-Gewebe
# Assay: Reversal of keratinization induced by vitamin A deficiency in hamster tracheal tissue (method of Clamon et al. / Sporn et al.)
# Format: cell-based
# Conditions: in 10^-8 molarer Lösung
# Text: Die erfindungsgemäßen Verbindungen sind in ihrer biologischen Aktivität den bekannten Retinsäureamiden der DE-OS 21 02 586 in etwa vergleichbar. Beispielsweise hebsowohl Retinsäure-N-(ß-hydroxy)-ethylamid als auch die erfindungsgemäßen Retinoide die durch Vitamin A-Hypovitamines induzierte Keratinisierung von Hamster-Tracheen-Gewebe noch in 10^-8 molarer Lösung vollständig auf. Die Methodik hierzu kann G.H. CLAMON et al Nature 250, 64 - 66 (1974) oder M.B. SPORN et al Nature 253, 47 - 50 (1975) entnommen werden. Die Keratinisierung wird als praekanzerotischer Prozes angesehen.
compound,measurement,value
CC1=C(/C=C/C(C)=C/C=C/C(C)=C/C(=O)NCCO)C(C)(C)CCC1 [Retinsäure-N-(ß-hydroxy)-ethylamid],Aufhebung der durch Vitamin A-Hypovitamines induzierten Keratinisierung von Hamster-Tracheen-Gewebe,vollständig
